In patent US20100285959A1, “HERBICIDAL MIXTURES” (priority 2006, published 2010):
Values belong to the compound of their own block, whether it stands above or below them.

Legend:
[1] = test system: corn (ZEAMD); assay: Test 5 field trial, postemergence; format: in vivo, Zea mays ssp. indentata; conditions: atrazine 1120, glufosinate 470 or glyphosate 1120 g a.i./ha alone
Description: (§1) Corn seeds (hybrid ‘Pioneer 38H69’) were planted in mid spring season, 5.1 cm deep in a silty clay loam soil having 3% organic matter and a pH of 6.5. Plots were 9.1 m long by 3.0 m wide with rows spaced 76 cm apart. The field was managed using conventional tillage practices. […] All treatments included a surfactant except glufosinate treatments, both alone and in combination. […] Results are summarized in Table 5 and are the means of the three replicates.

[2] = test system: velvetleaf (ABUTH); assay: Test 5 field trial, postemergence; format: in vivo, Abutilon theophrasti; conditions: atrazine 1120, glufosinate 470 or glyphosate 1120 g a.i./ha alone
Description: as §1

[3] = test system: common ragweed (AMBEL); assay: Test 5 field trial, postemergence; format: in vivo, Ambrosia artemisiifolia; conditions: atrazine 1120, glufosinate 470 or glyphosate 1120 g a.i./ha alone
Description: as §1

[4] = test system: shepherd's purse (CAPBP); assay: Test 5 field trial, postemergence; format: in vivo, Capsella bursa-pastoris; conditions: atrazine 1120, glufosinate 470 or glyphosate 1120 g a.i./ha alone
Description: as §1

[5] = test system: common lambsquarters (CHEAL); assay: Test 5 field trial, postemergence; format: in vivo, Chenopodium album; conditions: atrazine 1120, glufosinate 470 or glyphosate 1120 g a.i./ha alone
Description: as §1

[6] = test system: large crabgrass (DIGSA); assay: Test 5 field trial, postemergence; format: in vivo, Digitaria sanguinalis; conditions: atrazine 1120, glufosinate 470 or glyphosate 1120 g a.i./ha alone
Description: as §1

[7] = test system: giant foxtail (SETFA); assay: Test 5 field trial, postemergence; format: in vivo, Setaria faberi; conditions: atrazine 1120, glufosinate 470 or glyphosate 1120 g a.i./ha alone
Description: as §1

[8] = test system: yellow foxtail (SETLU); assay: Test 5 field trial, postemergence; format: in vivo, Setaria glauca; conditions: atrazine 1120, glufosinate 470 or glyphosate 1120 g a.i./ha alone
Description: as §1

[9] = test system: field pennycress (THLAR); assay: Test 5 field trial, postemergence; format: in vivo, Thlaspi arvense; conditions: atrazine 1120, glufosinate 470 or glyphosate 1120 g a.i./ha alone
Description: as §1

[10] = test system: corn (ZEAMD); assay: Test 6 field trial, postemergence; format: in vivo, Zea mays ssp. indentata; conditions: 470 g a.i./ha
Description: (§2) Corn seeds (hybrid ‘Pioneer 35Y62’) were planted in mid spring season, 3.8 cm deep in a silt loam soil having 4% organic matter and a pH of 5.8. Plots were 10.7 m long by 1.5 m wide with rows spaced 76 cm apart. Seeds were spaced 18 cm apart within the rows. The field was managed using conventional tillage practices. […] All treatments included a surfactant except glufosinate treatments, both alone and in combination. […] Results are summarized in Table 6 and are the means of the three replicates.

[11] = test system: velvetleaf (ABUTH); assay: Test 6 field trial, postemergence; format: in vivo, Abutilon theophrasti; conditions: 470 g a.i./ha
Description: as §2

[12] = test system: redroot pigweed (AMARE); assay: Test 6 field trial, postemergence; format: in vivo, Amaranthus retroflexus; conditions: 470 g a.i./ha
Description: as §2

[13] = test system: common lambsquarters (CHEAL); assay: Test 6 field trial, postemergence; format: in vivo, Chenopodium album; conditions: 470 g a.i./ha
Description: as §2

[14] = test system: Pennsylvania smartweed (POLPY); assay: Test 6 field trial, postemergence; format: in vivo, Polygonum pensylvanicum; conditions: 470 g a.i./ha
Description: as §2

[15] = test system: giant foxtail (SETFA); assay: Test 6 field trial, postemergence; format: in vivo, Setaria faberi; conditions: 470 g a.i./ha
Description: as §2

[16] = test system: yellow foxtail (SETLU); assay: Test 6 field trial, postemergence; format: in vivo, Setaria glauca; conditions: 470 g a.i./ha
Description: as §2

[17] = test system: velvetleaf (ABUTH); assay: Test 15 greenhouse, postemergence; conditions: 12 DAA
[18] = test system: wheat (TRZAW); assay: Test 30 growth chamber, postemergence; format: in vivo, Triticum aestivum
Experimental: (§3) A growth chamber test was conducted to evaluate the effects on the plant species wheat (TRZAW, Triticum aestivum L.) and barley (HORVX, Hordeum vulgare L.) with mixtures of Compound 1 and Compound 2 with glycerol. Wheat and barley seeds were planted in a sandy loam soil having 0.9% organic matter and a pH of 6.3. […] Wheat and barley plants were treated postemergence at the two leaf growth stage for Compound 1 and at the three leaf growth stage for Compound 2. Each treatment was replicated one time. […] Plants were watered as needed. […] Colby's Equation was used to determine herbicidal effects expected from the mixtures.

[19] = test system: barley (HORVX); assay: Test 30 growth chamber, postemergence; format: in vivo, Hordeum vulgare
Experimental: as §3

[20] = 17 DAA, Glycerol 7100 g a.i./ha
[21] = 17 DAA, Glycerol 14200 g a.i./ha
[22] = 18 DAA, Glycerol 7100 g a.i./ha
[23] = 18 DAA, Glycerol 14200 g a.i./ha

Structure (SMILES): CP(=O)(O)CCC(N)C(=O)O (stereo not shown) [Glufosinate]
ZEAMD Obs ([1]; 16 DAA): 0% | ZEAMD Obs ([1]; 31 DAA): 0% | ABUTH Obs ([2]; 16 DAA): 33% | ABUTH Obs ([2]; 31 DAA): 27% | AMBEL Obs ([3]; 16 DAA): 100% | AMBEL Obs ([3]; 31 DAA): 100% | CAPBP Obs ([4]; 16 DAA): 100% | CAPBP Obs ([4]; 31 DAA): 100% | CHEAL Obs ([5]; 16 DAA): 87% | CHEAL Obs ([5]; 31 DAA): 79% | DIGSA Obs ([6]; 16 DAA): 99% | DIGSA Obs ([6]; 31 DAA): 94% | SETFA Obs ([7]; 16 DAA): 100% | SETFA Obs ([7]; 31 DAA): 99% | SETLU Obs ([8]; 16 DAA): 98% | SETLU Obs ([8]; 31 DAA): 90% | THLAR Obs ([9]; 16 DAA): 100% | THLAR Obs ([9]; 31 DAA): 100% | ZEAMD Obs ([10]; 14 DAA): 0% | ZEAMD Obs ([10]; 28 DAA): 0% | ABUTH Obs ([11]; 14 DAA): 0% | ABUTH Obs ([11]; 28 DAA): 0% | AMARE Obs ([12]; 14 DAA): 100% | AMARE Obs ([12]; 28 DAA): 100% | CHEAL Obs ([13]; 14 DAA): 100% | CHEAL Obs ([13]; 28 DAA): 100% | POLPY Obs ([14]; 14 DAA): 98% | POLPY Obs ([14]; 28 DAA): 98% | SETFA Obs ([15]; 14 DAA): 99% | SETFA Obs ([15]; 28 DAA): 99% | SETLU Obs ([16]; 14 DAA): 95% | SETLU Obs ([16]; 28 DAA): 63%

Structure (SMILES): O=C1[C@H]2C[C@H](F)CN2C(=O)N1c1cc(NS(=O)(=O)CCl)c(Cl)cc1F [Profluazol]
Obs response, scale 0 to 100 ([17]; 2 g a.i./ha): 91 | Obs response, scale 0 to 100 ([17]; 8 g a.i./ha): 100 | Obs response, scale 0 to 100 ([17]; 15 g a.i./ha): 100

TRZAW Obs [18, 20]: 0% | TRZAW Obs [18, 21]: 0% | TRZAW Obs [18, 22]: 0% | TRZAW Obs [18, 23]: 0% | HORVX Obs [19, 20]: 0% | HORVX Obs [19, 21]: 0% | HORVX Obs [19, 22]: 0% | HORVX Obs [19, 23]: 0%
Structure (SMILES): OCC(O)CO [Glycerol]

Structure (SMILES): CCOc1cc(Oc2ccc(C(F)(F)F)cc2Cl)ccc1[N+](=O)[O-] [Oxyfluorfen]
Obs response, scale 0 to 100 ([17]; 15 g a.i./ha): 43 | Obs response, scale 0 to 100 ([17]; 30 g a.i./ha): 67 | Obs response, scale 0 to 100 ([17]; 60 g a.i./ha): 81
